The values below come from patent publication US8796256B2 (Janssen Pharmaceutica NV, priority 2010, dated 2014).

Molecules are shown by their SMILES.

This experiment has as its target T1, ERR1 (also known as ERR-α or ERR-1) (Homo sapiens, UniProt P11474).
T1 sequence (P11474 193-421 limits assumed): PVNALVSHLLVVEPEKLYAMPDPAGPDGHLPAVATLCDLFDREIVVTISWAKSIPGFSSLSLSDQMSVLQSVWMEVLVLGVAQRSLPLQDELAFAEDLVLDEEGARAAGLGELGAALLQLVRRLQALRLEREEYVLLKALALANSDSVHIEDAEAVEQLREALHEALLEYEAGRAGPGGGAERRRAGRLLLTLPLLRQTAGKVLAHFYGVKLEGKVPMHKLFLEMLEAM
Briefly: TR-FRET assay (disruption of co-activator peptide binding to ERR1 LBD). In kind it is biochemical. Conditions: 6 nM 6His-ERR1LBD, 6 nM GST-SRC-2 peptide; average of 3 independent experiments. The essentials:
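His-tagged ERR1 ligand-binding domain and GST-labelled SRC-2 peptide, each 6 nM, equilibrated at 25° C for 4-18 h in Tris pH 8/Hepes/KCl/DTT/delipidated BSA buffer. Compound-induced loss of co-activator binding read as Eu cryptate→XL665 energy transfer; values from hyperbolic curve fits averaged over 3 independent runs.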
Consider `COC(=O)[C@@H](COC(C)(C)C)N1C(=O)S/C(=C\c2ccc3c(cnn3Cc3ccc(Cl)cc3C(F)(F)F)c2)C1=O` [Compound 212, Methyl (2R)-3-tert-butoxy-2-[(5Z)-5-({1-[4-chloro-2-(trifluoromethyl)benzyl]-1H-indazol-5-yl}methylidene)-2,4-dioxo-1,3-thiazolidin-3-yl]propanoate], for which the EC50 was found to be 250 nM. Under `O=C(O)CN1C(=O)S/C(=C\c2ccc3c(cnn3Cc3ccc(F)cc3C(F)(F)F)c2)C1=O` [Compound 122, [(5Z)-5-({1-[4-Fluoro-2-(trifluoromethyl)benzyl]-1H-indazol-5-yl}methylidene)-2,4-dioxo-1,3-thiazolidin-3-yl]acetic acid] stands 314 nM. The compound `Cc1nn(Cc2ccc(Cl)cc2C(F)(F)F)c2ccc(/C=C3\SC(=O)N([C@@H]4CCN(C)C[C@H]4F)C3=O)cc12` (relative stereo) [Compound 335, (5Z)-5-({1-[4-Chloro-2-(trifluoromethyl)benzyl]-3-methyl-1H-indazol-5-yl}methylidene)-3-[trans-3-fluoro-1-methylpiperidin-4-yl]-1,3-thiazolidine-2,4-dione] returned an EC50 of 46 nM. In the case of `CCN(CC)CCN1C(=O)S/C(=C\c2ccc3c(cnn3Cc3ccc(OC)cc3C(F)(F)F)c2)C1=O` [Compound 18, (5Z)-3-[2-(Diethylamino)ethyl]-5-({1-[4-methoxy-2-(trifluoromethyl)benzyl]-1H-indazol-5-yl}methylidene)-1,3-thiazolidine-2,4-dione], the EC50 turned out to be 20 nM. Under `COC(=O)C1(N2C(=O)S/C(=C\c3ccc4c(cnn4Cc4ccc(Cl)cc4C(F)(F)F)c3)C2=O)CCC1` [Compound 234, Methyl 1-[(5Z)-5-({1-[4-chloro-2-(trifluoromethyl)benzyl]-1H-indazol-5-yl}methylidene)-2,4-dioxo-1,3-thiazolidin-3-yl]cyclobutanecarboxylate] stands 99 nM; under `O=C1S/C(=C\c2ccc3c(cnn3Cc3ccc(Cl)cc3C(F)(F)F)c2)C(=O)N1[C@H]1CCNC1` [Compound 114, (5Z)-5-({1-[4-Chloro-2-(trifluoromethyl)benzyl]-1H-indazol-5-yl}methylidene)-3-[(3S)-pyrrolidin-3-yl]-1,3-thiazolidine-2,4-dione], 55 nM. In turn, `CS(=O)(=O)NCCN1C(=O)S/C(=C\c2ccc3c(cnn3Cc3ccc(Cl)cc3C(F)(F)F)c2)C1=O` [Compound 393, N-{2-[(5Z)-5-({1-[4-Chloro-2-(trifluoromethyl)benzyl]-1H-indazol-5-yl}methylidene)-2,4-dioxo-1,3-thiazolidin-3-yl]ethyl}methanesulfonamide] displayed an EC50 of 32 nM.

The compound `COc1ccc(Cn2ncc3cc(/C=C4\SC(=O)N(CCN5CCN(CCO)CC5)C4=O)ccc32)c(C(F)(F)F)c1` [Compound 16, (5Z)-3-{2-[4-(2-Hydroxyethyl)piperazin-1-yl]ethyl}-5-({1-[4-methoxy-2-(trifluoromethyl)benzyl]-1H-indazol-5-yl)methylidene)-1,3-thiazolidine-2,4-dione] registered an EC50 of 71 nM.

In the case of `N=C(N)NOCCN1C(=O)S/C(=C\c2ccc3c(cnn3Cc3ccc(C(F)(F)F)cc3C(F)(F)F)c2)C1=O` [Compound 103, 1-{2-[(5Z)-5-({1-[2,4-Bis(trifluoromethyl)benzyl]-1H-indazol-5-yl}methylidene)-2,4-dioxo-1,3-thiazolidin-3-yl]ethoxy}guanidine], the EC50 is 43 nM.

In the case of `O=C(O)CN1C(=O)S/C(=C\c2ccc3c(ccn3Cc3ccc(F)cc3C(F)(F)F)c2)C1=O` [Compound 255, [(5Z)-5-({1-[4-Fluoro-2-(trifluoromethyl)benzyl]-1H-indol-5-yl}methylidene)-2,4-dioxo-1,3-thiazolidin-3-yl]acetic acid], a half-maximal effect (EC50) was put at 1020 nM.

With `O=C1OCCC1N1C(=O)S/C(=C\c2ccc3c(cnn3Cc3ccc(C(F)(F)F)cc3C(F)(F)F)c2)C1=O` (stereo not shown) [Compound 65, (5Z)-5-({1-[2,4-Bis(trifluoromethyl)benzyl]-1H-indazol-5-yl}methylidene)-3-(2-oxotetrahydrofuran-3-yl)-1,3-thiazolidine-2,4-dione], the EC50 was 50 nM. Under `CCN1CC[C@@H](N2C(=O)S/C(=C\c3ccc4c(cnn4Cc4ccc(Cl)cc4C(F)(F)F)c3)C2=O)[C@H](F)C1` (single isomer, unassigned) [Compound 326, (5Z)-5-({1-[4-Chloro-2-(trifluoromethyl)benzyl]-1H-indazol-5-yl}methylidene)-3-[trans-1-ethyl-3-fluoropiperidin-4-yl]-1,3-thiazolidine-2,4-dione] stands 140 nM; under `NC(=O)c1nn(Cc2ccc(Cl)cc2C(F)(F)F)c2ccc(/C=C3\SC(=O)N(CC(=O)O)C3=O)cc12` [Compound 417, [(5Z)-5-({3-Carbamoyl-1-[4-chloro-2-(trifluoromethyl)benzyl]-1H-indazol-5-yl}methylidene)-2,4-dioxo-1,3-thiazolidin-3-yl]acetic acid], 50 nM; under `O=C(O)CN1C(=O)S/C(=C\c2ccc3c(cnn3Cc3ccc(Cl)cc3C(F)(F)F)c2F)C1=O` [Compound 347, [(5Z)-5-({1-[4-Chloro-2-(trifluoromethyl)benzyl]-4-fluoro-1H-indazol-5-yl}methylidene)-2,4-dioxo-1,3-thiazolidin-3-yl]acetic acid], 116 nM. For `CS(=O)(=O)NN1C(=O)S/C(=C\c2ccc3c(cnn3Cc3ccc(Br)cc3C(F)(F)F)c2)C1=O` [Compound 364, N-[(5Z)-5-({1-[4-Bromo-2-(trifluoromethyl)benzyl]-1H-indazol-5-yl}methylidene)-2,4-dioxo-1,3-thiazolidin-3-yl]methanesulfonamide], a half-maximal effect (EC50) was put at 4 nM. `O=C1S/C(=C\c2ccc3c(cnn3Cc3ccc(C(F)(F)F)cc3C(F)(F)F)c2)C(=O)N1C[C@H]1CCCN1` [Compound 82, (5Z)-5-({1-[2,4-Bis(trifluoromethyl)benzyl]-1H-indazol-5-yl}methylidene)-3-[(2R)-pyrrolidin-2-ylmethyl]-1,3-thiazolidine-2,4-dione] yielded an EC50 of 81 nM. Compound `O=C1S/C(=C\c2ccc3c(cnn3Cc3ccc(Cl)cc3C(F)(F)F)c2)C(=O)N1Cc1nccn1S(=O)(=O)N1CCCC1` [Compound 412, (5Z)-5-({1-[4-Chloro-2-(trifluoromethyl)benzyl]-1H-indazol-5-yl}methylidene)-3-{[1-(pyrrolidin-1-ylsulfonyl)-1H-imidazol-2-yl]methyl}-1,3-thiazolidine-2,4-dione] gave an EC50 of 38 nM.

Compound `CC(C)N(CCO)CCN1C(=O)S/C(=C\c2ccc3c(cnn3Cc3ccc(Cl)cc3C(F)(F)F)c2)C1=O` [Compound 45, (5Z)-5-({1-[4-Chloro-2-(trifluoromethyl)benzyl]-1H-indazol-5-yl}methylidene)-3-{2-[(2-hydroxyethyl)(1-methylethyl)amino]ethyl}-1,3-thiazolidine-2,4-dione] gave a concentration giving a half-maximal response (EC50) of 47 nM.

Turning to `NS(=O)(=O)CN1C(=O)S/C(=C\c2ccc3c(cnn3Cc3ccc(Cl)cc3C(F)(F)F)c2)C1=O` [Compound 165, 1-[(5Z)-5-({1-[4-Chloro-2-(trifluoromethyl)benzyl]-1H-indazol-5-yl}methylidene)-2,4-dioxo-1,3-thiazolidin-3-yl]methanesulfonamide], a half-maximal effect (EC50) was put at 34 nM.

Usually EC50 stands for the midpoint of the concentration-response curve. Low readings indicate a more potent agent, high ones a less potent agent.
